Holding throughout (type): physicochemical
The nature of data set [1]: Intrinsic solubility, log 1/S0 of the compound.
A short description of data set [2]: Lipophilicity, log P of the compound. Particulars: octanol/water.
Data set [3] in a line: Dissociation constant, pKa of the compound.

SMILES strings stand for the structures.

Take `COC(OC)n1c(=O)[nH]c2c(=O)n(CC(=O)NC(C(=O)C(F)(F)F)C(C)C)c(-c3ccccc3)cc2c1=O` (stereo unspecified): the log1/S0 in data set [1] stood at 3.11.

Take `COc1ccc(Cn2c(=O)[nH]c3c(=O)n(CC(=O)NC(C(=O)C(F)(F)F)C(C)C)c(-c4ccccc4)cc3c2=O)cc1` (stereo unspecified): in data set [1], the log1/S0 was 3.4.

In data set [2], `Nc1ccc(S(=O)(=O)Nc2ncccn2)cc1` [SULFADIAZINE] registered a logP of -0.13. Moreover, the log1/S0 in data set [1] worked out at 3.67.

Turning to `CCOCCn1c(=O)[nH]c2c(=O)n(CC(=O)NC(C(=O)C(F)(F)F)C(C)C)c(-c3ccccc3)cc2c1=O` (stereo unspecified), the log1/S0 in data set [1] is listed as 4.83.

`COc1cnc(NS(=O)(=O)c2ccc(N)cc2)nc1`: in data set [2], the logP stood at 0.46. This compound yielded a log1/S0 in data set [1] of 3.63.

As to `CC(C)C(NC(=O)Cn1c(-c2ccccc2)cc2c(=O)n(CC(N)=O)c(=O)[nH]c2c1=O)C(=O)C(F)(F)F` (stereo unspecified), the log1/S0 in data set [1] was determined as 3.6.

Consider `CN1C(=O)CN=C(c2ccccc2)c2cc(Cl)ccc21` [DIAZEPAM], for which the log1/S0 in data set [1] is on record as 3.83.

As for `COc1ccc(NS(=O)(=O)c2ccc(N)cc2)nn1` [SULFAMETHOXYPYRIDAZINE], the lipophilicity (logP) in data set [2] was 0.4. Further, in data set [1], the log1/S0 is given as 2.55.

In data set [1], `O=C1CN=C(c2ccccc2Cl)c2cc(Cl)ccc2N1` [DELORAZEPAM] gave a log1/S0 of 3.97.

Regarding `CC(C)C(NC(=O)Cn1c(-c2ccccc2)cc2c(=O)n(C)c(=O)[nH]c2c1=O)C(=O)C(F)(F)F` (stereo unspecified), the log1/S0 in data set [1] is given as 4.03.

As to `CN1CCN=C(c2ccccc2)c2cc(Cl)ccc21` [MEDAZEPAM], the log1/S0 in data set [1] is listed as 4.41.

With `CC(C)C(NC(=O)Cn1c(-c2ccccc2)cc2c(=O)n(CCN3CCOCC3)c(=O)[nH]c2c1=O)C(=O)C(F)(F)F` (stereo unspecified), the log1/S0 in data set [1] is 3.44. This compound came in with a pKa in data set [3] of 7.04.

Compound `Cc1cc(NS(=O)(=O)c2ccc(N)cc2)nc(C)n1` [SULFISOMIDINE] yielded a logP in data set [2] of -0.3. In data set [1], this compound registered a log1/S0 of 2.78.

The compound `Cc1ccnc(NS(=O)(=O)c2ccc(N)cc2)n1` [SULFAMERAZINE] returned a logP in data set [2] of 0.13.

For the compound `CNC(=O)Cn1c(=O)[nH]c2c(=O)n(CC(=O)NC(C(=O)C(F)(F)F)C(C)C)c(-c3ccccc3)cc2c1=O` (stereo unspecified), the log1/S0 in data set [1] worked out at 3.73.

`COc1ncnc(NS(=O)(=O)c2ccc(N)cc2)c1OC` [SULFADOXINE]: the logP in data set [2] amounted to 1.06. The compound further returned a log1/S0 in data set [1] of 3.59.

The compound `COc1cc(NS(=O)(=O)c2ccc(N)cc2)nc(C)n1` [SULFAMETOMIDINE] yielded a log1/S0 in data set [1] of 3.05.

As for `Cc1noc(NS(=O)(=O)c2ccc(N)cc2)c1C` [SULFISOXAZOLE], the lipophilicity (logP) in data set [2] worked out at 1.15. In data set [1], the log1/S0 is reported as 3.45.

As to `Cc1cc(C)nc(NS(=O)(=O)c2ccc(N)cc2)n1` [SULFAMETHAZINE], the logP in data set [2] came to 0.89.

By logP is commonly meant a log measure of how a compound divides between an organic and an aqueous phase. A high value points to higher lipophilicity. For orientation: pKa means the negative logarithm of the acid dissociation constant.

Source of the values: ChEMBL document CHEMBL1781917, “Computational aqueous solubility prediction for drug-like compounds in congeneric series” (Eur J Med Chem, 2008).
